Laboratory results reported in patent publication US20030130249A1, “Therapeutic use of estrogen receptor (ER)beta-selective agonists for triggering somatotropic, organotropic and anticatabolic effects (somatotropic therapy)” (Schering AG, priority 2001, published 2003).

Assays:
Assay type in all cases: in vivo, rat
[1] = tested on: uterus of adult rats that have undergone ovariectomies; assay: Uterotropic action in adult ovariectomized rats (FIG. 1); conditions: for dose giving increase in uterus weight ("standard" estrogenic activity): treatment day 1-day 3, autopsy day 4
Description: The substances that are to be used according to the invention have very little action in terms of “standard estrogens.” Corresponding estrogenic properties can be examined in the rats that have undergone ovariectomy. In the case of parenteral administration, 17β-estradiol even at a dose of 0.1 μg results in an increase in uterus weight. […] These substances have a correspondingly small action on the parameters of hepatic estrogeneity, for example the increase of the angiotensinogen in the blood. To examine the action of the ERβ-selective agonists in the context according to the invention, their estrogenic action on the genital tract, liver functions, somatotropic factors and on the secretion of gonadotropins was examined in comparison to estradiol in adult rats that have undergone ovariectomies. Determination of the uterotropic action of an ERα- or ERβ-selective agonist (agon) in comparison to estradnol (E2) Study of adult rats that have undergone ovariectomies 14 days after the ovariectomies, treatment day 1-day 3, autopsy day 4, subcutaneous administration in 0.2 ml of vehicle.

[2] = tested on: gonads of male and female, sexually immature rats; assay: Effects on gonads and prostate of sexually immature rats (FIG. 3)
Description: ERβ-selective properties can be studied in the case of female and male rats that are not sexually mature. […] In the case of a parenteral dose of 1 μg/animal/day, estradiol results in a complete inhibition of testicular growth. […] The action on the somatotropic functions, gonad functions and the genital tract was studied in infant, gonad-intact, male and female rats. Effects of ERβ-agon or ERβ-selective agonists (agon) (E2) on gonads of male and female, sexually immature rats in comparison to estradiol. Treatment of the young animals after weaning over 7 days (day 1-day 7, autopsy day 8, subcutaneous injection).

[3] = tested on: IGF-I in the plasma from sexually immature rats with intact ovaries; assay: IGF-I in the plasma of sexually immature rats (FIG. 4); conditions: 7 days subcutaneous, two tests with different dose ranges
From the text: (§1) Effects of ERα- or ERβ-selective agonists (agon) on IGF-I in the plasma from sexually immature rats with intact ovaries in comparison to estradiol (E2). Treatment of the young animals after weaning over 7 days (day 1-day 7, autopsy day 8; subcutaneous injection) in two tests with different dose ranges.

[4] = tested on: cholesterol fractions in the plasma from sexually immature rats with intact ovaries; assay: Cholesterol fractions in the plasma of sexually immature rats (FIG. 5); conditions: 7 days subcutaneous
From the text: as §1, with “the cholesterol fractions” for “IGF-I”, “8,” for “8;”

[5] = tested on: adrenal glands and thymus of sexually immature rats with intact ovaries; assay: Organ weights of adrenal glands and thymus of sexually immature rats (FIG. 6); conditions: 7 days subcutaneous
From the text: Effects of ERα- or ERβ-selective agonists (agon) on the development of the organ weights of the adrenal glands and the thymus of sexually immature rats with intact ovaries in comparison to estradiol (E2). Treatment of young animals after weaning over 7 days (day 1-day, 7, autopsy day 8, subcutaneous injection).

[6] = tested on: body growth of sexually immature rats whose ovaries are intact; assay: Body growth of sexually immature rats (FIG. 7); conditions: immature rats with intact ovaries, 7 days subcutaneous
From the text: Effects of ERα- or ERβ-selective agonists (agon) on the body growth of sexually immature rats whose ovaries are intact in comparison to estradiol (E2). Treatment of the young animals after weaning over 7 days (day 1-day 7, autopsy day 8, subcutaneous injection) in two tests with different dose ranges.

[7] = tested on: uterus and vagina of ovary-intact, sexually immature rats; assay: Effects on uterus and vagina in ovary-intact, sexually immature rats (FIG. 2); conditions: 7 days subcutaneous
From the text: The action on the somatotropic functions, gonad functions and the genital tract was studied in infant, gonad-intact, male and female rats. Effects of ERβ-agon or ERβ-selective agonists (agon) (E2) on the uterus and vagina in ovary-intact, sexually immature rats in comparison to estradiol. Treatment of the young animals after weaning over 7 days (day 1-day 7, autopsy day 8, subcutaneous injection) in two tests with different dose ranges.

[8] = Plasma levels after one-time oral or subcutaneous administration to ovariectomized rats, RIA (FIG. 8); conditions: one-time oral 1.0 mg or subcutaneous graduated dosages
Description: Plasma levels of the ERβ-selective agonist after a one-time oral or parenteral (subcutaneous injection) administration to ovariectomized rats, determinations 0.5; 1; 3; 6; 24 hours after oral administration of 1.0 mg (left) or 1; 2; 4; 6; 24 hours after subcutaneous administration of graduated dosages. Immunological determination by means of LCMS-validated Radio Immuno Assay (RIA).

SMILES | dose giving increase in uterus weight ("standard" estrogenic activity) ([1]; subcutaneous) | dose giving complete inhibition of testicular growth ([2]; parenteral) | induction of uterus growth ([1]; subcutaneous, compared with ERβ-agon) | IGF-I in the plasma [3] | HDL-cholesterol fraction in the plasma at high doses ([4]; high doses) | total cholesterol in the plasma at high doses ([4]; high doses) | adrenal gland weight [5] | thymus weight [5] | thymus weight at higher dosages ([5]; higher dosages) | body growth (weight increase) at higher dosages ([6]; higher dosages) | dose relative to estradiol for comparable uterotropic effect ([1]; parenteral, versus 0.1 μg of E2) | weight development of the uterus and vagina ([7]; autopsy day 8) | effects on uterus and vagina weight compared with ERα-agon and E2 ([7]; lowest tested dose) | growth of the prostate ([2]; 7 days subcutaneous) | testicular growth ([2]; 7 days subcutaneous, autopsy day 8) | testicular growth at high doses ([2]; high doses, 7 days subcutaneous) | HDL-cholesterol fraction in the plasma ([4]; broad dose range) | total cholesterol in the plasma ([4]; broad dose range) | body growth ([6]; two tests with different dose ranges) | oral bioavailability (plasma levels) [8]
C[C@]12CC[C@@H]3c4ccc(O)cc4CC[C@H]3[C@@H]1CC[C@@H]2O [E2, estradiol, reference compound] | 0.1 µg | 1 μg/animal/day |  |  |  |  |  |  |  |  |  |  |  |  |  |  |  |  |  | 
C[C@]12CC[C@@H]3c4ccc(O)cc4CC[C@H]3[C@@H]1C[C@H]1OC(=O)C[C@]12O [ERα-agon, 3,17β-dihydroxy-19-nor-17α-pregna-1,3,5(10)-triene-21,16α-lactone, reference compound] |  |  | induce uterus growth in the case of much lower dosage than the ERβ-agon | No comparable effects | drop the HDL-cholesterol fraction | drop the HDL-cholesterol fraction and the total cholesterol | less pronounced positive effects | less pronounced positive effects | reduction of the thymus weight | considerable reduction of the weight increase |  |  |  |  |  |  |  |  |  | 
C=C[C@@]12CCc3cc(O)ccc3[C@H]1CC[C@@]1(C)[C@H]2CC[C@@H]1O [ERβ-agon, 8β-vinyl-1,3,5(10)-estratriene-3,17β-diol] | 100 µg |  |  | Statistically significant increase of the IGF-I |  |  | increase of adrenal gland weight | increase of adrenal gland weight and thymus weight |  |  | 1000 fold | considerable effects on the weight development of the uterus and vagina in extremely low dosages | exceed those of ERα-agon, and E2 is statistically significant | acceleration of the growth of the prostate | stimulates testicular growth beyond the normal size, which is statistically significant | inhibition of the testicular growth | increase of the HDL-cholesterol fraction | elevated plasma levels of the total cholesterol | accelerated growth of the animals via a broad dose range | orally readily bioavailable
